Values of other authors as cited in patent US20100104638A1 (priority 2008, published 2010).

CC(=O)Nc1ccc(O)cc1 [Acetaminophen, N-(4-hydroxyphenyl) acetamide]
Aqueous solubility: about 14 mg/ml
